Data reported in PubChem BioAssay AID330 (DTP/NCI, 2004).
“And” between values parts separate entries of the source, which are not always exact repeats. Equal values may be shown once. Inconclusive results and toxic doses are left out. The calls were made as follows: active = survival T/C of 150% or more; inactive = T/C below 125% in these data.

Test system: P388 leukemia ip, CD2F1 mice, survival T/C
Experiment: NCI In Vivo Anticancer Drug Screen. Data for tumor model P388 Leukemia (intraperitoneal) in CD2F1 (CDF1) mice
Settings: endpoint: median survival time, higher = longer survival
Summary of the method: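 Mice carrying the transplanted tumor received test compound or vehicle. Survival was recorded in each group, and the value is the treated-group measurement divided by that of the vehicle-treated control group.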

[1] = dose: 50.0 mg/kg/injection, schedule: Q01DX005 (ip), vehicle: saline with Tween-80
[2] = dose: 100.0 mg/kg/injection, schedule: Q01DX005 (ip), vehicle: saline with Tween-80
[3] = dose: 200.0 mg/kg/injection, schedule: Q01DX005 (ip), vehicle: saline with Tween-80

Measured: T/C

CN1C(c2ccccc2)=C(C#N)C(=O)CC(c2ccccc2)N1C (stereo not drawn)
inactive: dose: 5.0 mg/kg/injection, schedule: Q01DX005 (ip), vehicle: saline with Tween-80 102 % of control | dose: 10.0 mg/kg/injection, schedule: Q01DX005 (ip), vehicle: saline with Tween-80 105 % of control | dose: 20.0 mg/kg/injection, schedule: Q01DX005 (ip), vehicle: saline with Tween-80 102 % of control | dose: 40.0 mg/kg/injection, schedule: Q01DX005 (ip), vehicle: saline with Tween-80 102 % of control | [1] 101 % of control | dose: 60.0 mg/kg/injection, schedule: Q01DX005 (ip), vehicle: saline with Tween-80 120 % of control | [2] 93 % of control | dose: 120.0 mg/kg/injection, schedule: Q01DX005 (ip), vehicle: saline with Tween-80 103 % of control | [3] 104 % of control | dose: 240.0 mg/kg/injection, schedule: Q01DX005 (ip), vehicle: saline with Tween-80 94 % of control

O=C/C=C/n1ccccc1=S
inactive: dose: 10.0 mg/kg/injection, schedule: Q01DX001 (ip), vehicle: Klucel (hydroxypropylcellulose) (HPC) 109 % of control | dose: 20.0 mg/kg/injection, schedule: Q01DX001 (ip), vehicle: Klucel (hydroxypropylcellulose) (HPC) 102 % of control

CCOC(=O)C(=CNc1ccccc1-n1cccc1)C(=O)OCC
inactive: dose: 50.0 mg/kg/injection, schedule: Q01DX005 (ip), vehicle: Klucel (hydroxypropylcellulose) (HPC) 100 % of control | dose: 100.0 mg/kg/injection, schedule: Q01DX005 (ip), vehicle: Klucel (hydroxypropylcellulose) (HPC) 108 % of control | dose: 200.0 mg/kg/injection, schedule: Q01DX005 (ip), vehicle: Klucel (hydroxypropylcellulose) (HPC) 93 % of control

CCN(CC)CCOC(C)(C)C#CC(C)(C)O
inactive: [1] 100 % of control | [2] 99 % of control | [3] 99 % of control

CNC(=O)NC(c1cc(OC)c(OC)c(OC)c1)c1cc2c(cc1O)OCO2 (stereo not drawn)
inactive: dose: 30.0 mg/kg/injection, schedule: Q01DX005 (ip), vehicle: Klucel (hydroxypropylcellulose) (HPC) 89 % of control | dose: 60.0 mg/kg/injection, schedule: Q01DX005 (ip), vehicle: Klucel (hydroxypropylcellulose) (HPC) 87 % of control and 92 % of control | dose: 240.0 mg/kg/injection, schedule: Q01DX005 (ip), vehicle: Klucel (hydroxypropylcellulose) (HPC) 87 % of control

CCOc1ccc(C(CC)c2cc3c(cc2OC)OCO3)cc1 (stereo not drawn)
inactive: dose: 60.0 mg/kg/injection, schedule: Q01DX005 (ip), vehicle: saline + Tween-80 + alcohol 100 % of control | dose: 120.0 mg/kg/injection, schedule: Q01DX005 (ip), vehicle: saline + Tween-80 + alcohol 100 % of control | dose: 240.0 mg/kg/injection, schedule: Q01DX005 (ip), vehicle: saline + Tween-80 + alcohol 100 % of control

COC(=O)C1(C)CCCC2(C)C3CCC4CC3(C=C4CO)CCC12 (stereo not drawn)
inactive: dose: 10.0 mg/kg/injection, schedule: Q01DX005 (ip), vehicle: Klucel (hydroxypropylcellulose) (HPC) 108 % of control | dose: 20.0 mg/kg/injection, schedule: Q01DX005 (ip), vehicle: Klucel (hydroxypropylcellulose) (HPC) 100 % of control | dose: 40.0 mg/kg/injection, schedule: Q01DX005 (ip), vehicle: Klucel (hydroxypropylcellulose) (HPC) 100 % of control | dose: 80.0 mg/kg/injection, schedule: Q01DX005 (ip), vehicle: Klucel (hydroxypropylcellulose) (HPC) 93 % of control
